In ChEMBL document CHEMBL1201862, “PubChem BioAssay data set” (2004):
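Interpolation was linear, between the two tested concentrations surrounding the appropriate level; five concentrations were tested over 48 hours in 96-well plates. GI50 = concentration required for 50% inhibition of growth.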 Activity calls are given as the source filed them. Rule as the data show it: active = GI50 up to about 1.1 µM and inactive = higher.

Tests used:
Assay in all cases: DTP human tumour cell line panel, 48 h
DU-145 = tested on: DU-145
Hs-578T = tested on: Hs-578T
MDA-MB-231 = tested on: MDA-MB-231
PC-3 = tested on: PC-3
SNB-78 = tested on: SNB-78
DMS-273 = tested on: DMS-273
HOP-18 = tested on: HOP-18
RXF 631 = tested on: RXF 631

Measured: GI50

Cc1coc2c1C[C@@]1(C)[C@H](CCC[C@@H]1C)[C@H]2O
inactive: DU-145 11.9 µM | Hs-578T 71.1 µM | MDA-MB-231 20.7 µM | PC-3 19.1 µM

COc1ccc(/C=C/C(=O)C(C)(C)C)cc1OC
inactive: SNB-78 38 µM

CCCCCCNC(=O)C(C)C1CCC2(C)C=CC(=O)C(C)=C2C1O (stereo not given)
inactive: DMS-273 > 100 µM | HOP-18 > 100 µM | SNB-78 > 100 µM

CC1CC(c2ccc([N+](=O)[O-])cc2)=Nc2ccccc2[S+]1[O-] (stereo not given)
inactive: DMS-273 19 µM | RXF 631 20.8 µM | SNB-78 43.6 µM

Cc1c2ccccc2c(CO)c2cc(F)c3ccccc3c12
inactive: DMS-273 14.8 µM | HOP-18 28.5 µM | RXF 631 16.7 µM | SNB-78 24 µM

Cc1ccc(/N=N/C(C2=NC(=O)CS2)c2nc3ccccc3[nH]2)cc1 (stereo not given)
inactive: DMS-273 > 100 µM

NC(=O)c1ncn2c1CNC(=O)C2
inactive: DU-145 > 100 µM | Hs-578T > 100 µM | MDA-MB-231 > 100 µM | PC-3 > 100 µM

Nc1nc(Cl)cc(NCCCNc2cc(Cl)nc(N)n2)n1
inactive: DMS-273 > 100 µM | HOP-18 > 100 µM | RXF 631 > 100 µM

Cc1cn(C2CC(n3cc(Cn4ccc(=O)[nH]c4=O)nn3)C(CO)O2)c(=O)[nH]c1=O (stereo not given)
inactive: DU-145 > 100 µM | Hs-578T > 100 µM | MDA-MB-231 > 100 µM | PC-3 > 100 µM

Cc1ccc2c(O)cc(-c3ccc(F)cc3)nc2n1
inactive: DU-145 81.7 µM | Hs-578T 26.5 µM | MDA-MB-231 63 µM
